Patent US6855519B2, “Methods for enhancing the production of interferon in cell culture” (The Regents of the University of California, priority 1995, dated 2005)

Experiments:
Format in all cases: cell-based
U937-PKR+ cells [1] = experiment: Interferon induction in U937-PKR+ cells (IFN assay of culture supernatants)
Method: (§1) FIG. 2. Interferon induction in U937-PKR+ cells and control U937-neo cells. U937-PKR+ cells and U937-neo cells (0.5×10^6/ml) were cultured in RPMI 1640 medium, supplemented with 5% fetal bovine serum. The cells were pretreated (“primed”) with or without 10 nM PMA for 20 hrs followed by induction with 10 μg/ml poly r(I):poly r(C) or with 0.1 TCID50/cell EMCV for 20 hrs. Twenty-four hours after induction, culture supernatants were collected and assayed for IFN-α. The open bars indicate U937-neo cells, the hatched bars indicate U937-PKR+ cells. The experimental groups indicate different treatments: 1-no treatment; 2-poly r(I):poly r(C) induction alone; 3-EMCV induction alone; 4-PMA priming alone; 5-PMA priming and poly r(I):poly r(C) induction; 6-PMA priming and EMCV induction.
(§2) The levels of IFN-α in the preparations can be determined by titrating for antiviral activity on L929 (murine fibroblast) cells against National Institute of Allergy and Infectious Diseases reference standard G-023-901-527 (Lau et al. J. Clin. Invest. 82:1415-1421 1988). In this technique, 5×10^4 L929 cells are seeded into each well of 96-well microtiter plates and then incubated with two-fold serial dilutions of culture supernatants for 16 hr. The cells are subsequently challenged with EMCV or Sendai virus (0.1 or 0.01 TCID per cell). Virus-induced cytopathic effects were assessed by microscopic examination and by staining cells with 0.1% crystal violet in 5% ethanol solutions. The IFN titer is defined as the reciprocal of the highest dilution of culture supernatants capable of protecting 50% of the cells from viral-induced cytopathic effects.
U937-PKR+ cells and U937-neo cells were cultured in RPMI 1640 medium, supplemented with fetal bovine serum. The cells were pretreated with or without phorbol myristate acetate (PMA) (10 nM) for 20 hr and with or without subsequent stimulation by poly r(I):r(C), 10 ug/ml, for 20 hr. Twenty-four hr after the stimulation with poly r(I):r(C), culture supernatants were collected for IFN assays.

U937-PKR+ cells [2] = experiment: Trypan blue exclusion viability assay following induction
Text: Following induction by poly r(I):poly r(C), the U937-PKR+ cells were examined for viability using a trypan blue exclusion assay. […] Thus, the U937-PKR+ cells can be recycled for continuous production of IFN.

U937-neo cells = experiment: Interferon induction in control U937-neo cells (IFN assay of culture supernatants); details: inducer 10 μg/ml for 20 hr, either with or without 10 nM PMA priming
Method: as §1
as §2, with “The cells are subsequently challenged with EMCV or Sendai virus (0.1 or 0.01 TCID per cell).” left out, “The IFN titer is defined as the reciprocal of the highest dilution of culture supernatants capable of protecting 50% of the cells from viral-induced cytopathic effects.” left out

| Compound | IFN production (U937-PKR+ cells [1]; PMA priming alone, no EMCV or poly r(I):poly r(C) inducer, compared with U937-neo cells) | IFN production (U937-PKR+ cells [1]; inducer 10 μg/ml for 20 hr, with or without 10 nM PMA priming) | IFN level (U937-PKR+ cells [1]; with 10 nM PMA priming 20 hr, then induction) | viable cells (U937-PKR+ cells [2]) | IFN-α synthesis (U937-neo cells) |
| --- | --- | --- | --- | --- | --- |
| CCCCCCCCCCCCCC(=O)O[C@@H]1[C@@H](C)[C@@]2(O)[C@@H](C=C(CO)C[C@]3(O)C(=O)C(C)=C[C@@H]23)[C@@H]2C(C)(C)[C@]12OC(C)=O [PMA, phorbol myristate acetate] | higher levels of IFNs than did U937-neo cells | – | – | – | – |
| poly r(I):poly r(C) | – | increased IFN production | 4000 U/ml | more than 95% | minimal synthesis of IFN-α |
